Results: the NIST ThermoML archive (doi:10.1021/je700714m)
Numbers after ± are expanded uncertainties.

Key:
[1] = refractive index (Na D-line) (dimensionless); xn = mol fraction of the nth substance listed; details: 100 kPa, Liquid, x2 = 0
[2] = xn = mol fraction of the nth substance listed; details: x2 = 0; for mass density / speed of sound / viscosity: 100 kPa, Liquid
[3] = for mass density / speed of sound / viscosity: 100 kPa, Liquid
[4] = refractive index (Na D-line) (dimensionless); details: 101.33 kPa, Liquid

Clc1ccccc1 [chlorobenzene] + COc1ccc(C=O)cc1
Details | mass density, [2] [kg/m3] | refractive index, [1] | speed of sound, [2] [m/s] | surface tension liquid-gas, [2] [mN/m] | viscosity, [2] [mPa·s]
303.15 K | 1102 ± 4.7 | 1.559 ± 0.0012 | 1220 ± 170 | 33.6 ± 1.9 | 0.7105 ± 0.074
313.15 K | 1080 ± 4.9 | 1.5509 ± 0.0012 | – | 32.3 ± 1.8 | 0.6914 ± 0.072
323.15 K | 1067.4 ± 5.2 | 1.548 ± 0.0012 | 695 ± 120 | 31.26 ± 1.8 | 0.5543 ± 0.06

Clc1ccccc1 [chlorobenzene]
Details | mass density, [3] [kg/m3] | refractive index, [4] | speed of sound, [3] [m/s] | surface tension liquid-gas, [3] [mN/m] | viscosity, [3] [mPa·s]
303.15 K | 1102 ± 4.7 | – | 1220 ± 170 | 33.6 ± 1.9 | 0.7105 ± 0.074
313.15 K | 1080 ± 4.9 | – | – | 32.3 ± 1.8 | 0.6914 ± 0.072
323.15 K | 1067.4 ± 5.2 | 1.548 ± 0.0012 | 695 ± 120 | 31.26 ± 1.8 | 0.5543 ± 0.06

COc1ccc(C=O)cc1 [4-methoxybenzaldehyde]
Details | mass density, [3] [kg/m3] | refractive index, [4] | speed of sound, [3] [m/s] | surface tension liquid-gas, [3] [mN/m] | viscosity, [3] [mPa·s]
303.15 K | 1125.5 ± 4.8 | 1.5571 ± 0.0012 | 1684 ± 220 | 99.08 ± 4.9 | 3.275 ± 0.29
313.15 K | 1119.1 ± 5.1 | 1.5488 ± 0.0012 | 1631 ± 210 | 96.11 ± 4.8 | 2.97 ± 0.27
323.15 K | 1114.1 ± 5.5 | 1.5463 ± 0.0012 | 1571 ± 200 | 94.1 ± 4.7 | 2.442 ± 0.22
